Test results from PMC8580996, “2-Oxoglutarate derivatives can selectively enhance or inhibit the activity of human oxygenases” (Nature Communications, 2021).
Values joined by “and” are separate entries in the source; they are usually repeats but may differ in a detail not shown here. Equal entries are not always repeated.

Molecular target: FIH (Homo sapiens, UniProt Q9NWT6)
Test: FIH steady-state kinetic parameters (SPE-MS, initial hydroxylation rates)
Type: biochemical
Parameters: slope of initial reaction rate: unit not given here
Procedure: Final 2OG/2OG derivative concentrations are given in Supplementary Figs. 5 and 6. Reactions were monitored with a rate of ~1 sample/40 s using the same SPE-MS configuration as described above. Data were analyzed as described above and the slopes of the initial reaction rates (Supplementary Figs. 5 and 6) fitted to a Michaelis–Menten plot using non-linear regression (GraphPad Prism 5). […]
determine kinetic parameters for 2OG derivatives (continues on the following page). Maximum velocities (vapp ) and Michaelis constants (Kapp) of FIH were determined in independent triplicates for 2OG and the 2OG […]
SPE-MS as described in the Methods section. […]
acid (LAA), and 20 μM ammonium iron(II) sulfate hexahydrate (FAS, (NH4)2Fe(SO4)2·6H2O) in buffer (50 mM […]
Tris, 50 mM NaCl, pH 7.5, 20° C). […]
data are provided as a Source Data file. […]
concentrations of 2OG; (b) hydroxylation rates used to determine kinetic parameters of FIH for 2OG; (c) time […]
3-methyl-2OG (1); (d) hydroxylation rates used to determine kinetic parameters of FIH for 1; (e) time course of […]
2OG (12); (f) hydroxylation rates used to determine kinetic parameters of FIH for 12; (g) time course of the FIH- […]
(h) hydroxylation rates used to determine kinetic parameters of FIH for 14; (i) time course of the FIH-catalyzed […]
(carboxycarbonyl)cyclopentane-1-carboxylic acid (22); (j) hydroxylation rates used to determine kinetic parameters of FIH for 22.
Supplementary Figure 6. Hydroxylation rates of FIH-catalyzed CA1-20 hydroxylations used to determine kinetic parameters for 2OG derivatives (continues on the following page). Maximum velocities (vapp ) and […]
ammonium iron(II) sulfate hexahydrate (FAS, (NH4)2Fe(SO4)2·6H2O) in buffer (50 mM Tris, 50 mM NaCl, pH […]
Source data are provided as a Source […]
of 2OG; (b) hydroxylation rates used to determine kinetic parameters of FIH for 2OG; (c) time course of the FIH-catalyzed hydroxylation reaction of the CA1-20 peptide for the shown concentrations of 3-methyl-2OG (1); (d) hydroxylation rates used to determine kinetic parameters of FIH for 1; (e) time course of the FIH -catalyzed hydroxylation reaction of the CA 1-20 peptide for the shown concentrations of 4 -methyl-2OG (12); (f) hydroxylation rates used to determine kinetic parameters of FIH for 12; (g) time course of the FIH-catalyzed hydroxylation reaction of the CA1-20 peptide for the shown concentrations of 4-ethyl-2OG (14); (h) hydroxylation rates used to determine kinetic parameters of FIH for 14; (i) time course of the FIH-catalyzed hydroxylation reaction of the CA1-20 peptide for the shown concentrations of 3-(carboxycarbonyl)cyclopentane-1-carboxylic acid (22); (j) hydroxylation rates used to determine kinetic parameters of FIH for 22.

Sequence of FIH (Q9NWT6 whole entry): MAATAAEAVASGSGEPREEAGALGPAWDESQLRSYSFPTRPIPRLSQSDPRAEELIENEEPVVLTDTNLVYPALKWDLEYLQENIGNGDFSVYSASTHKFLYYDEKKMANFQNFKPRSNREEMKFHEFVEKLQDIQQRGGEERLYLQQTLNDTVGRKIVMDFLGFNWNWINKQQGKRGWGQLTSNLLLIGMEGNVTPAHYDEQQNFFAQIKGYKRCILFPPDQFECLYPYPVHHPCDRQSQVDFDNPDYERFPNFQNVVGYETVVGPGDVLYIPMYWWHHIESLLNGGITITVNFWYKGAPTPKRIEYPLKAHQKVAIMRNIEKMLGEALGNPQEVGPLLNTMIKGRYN

In the case of `CC(CC(=O)C(=O)O)C(=O)O` (stereo not shown) [compound 12, 4-methyl-2OG], the “SPE-MS determined concentration of hydroxylated HIF-1a peptide” value (“SPE-MS determined concentration” below) (0.25 uM compound 12, time 0.699833 min) is reported as 0.04437 µM and 0.04741 µM and 0.03831 µM, the “SPE-MS determined concentration” value (0.25 uM compound 12, time 2.098 min) is reported as 0.08198 µM and 0.1152 µM and 0.1017 µM and the “SPE-MS determined concentration” value (0.5 uM compound 12, time 0.699833 min) is reported as 0.06422 µM and 0.08062 µM and 0.07548 µM. For the same compound, the “SPE-MS determined concentration” value (0.5 uM compound 12, time 2.098 min) was 0.1727 µM and 0.153 µM and 0.1556 µM, the “SPE-MS determined concentration” value (0.5 uM compound 12, time 2.797 min) was 0.211 µM and the “SPE-MS determined concentration” value (1 uM compound 12, time 0.699833 min) was 0.1124 µM and 0.1213 µM and 0.1053 µM. The “SPE-MS determined concentration” value (1 uM compound 12, time 2.098 min) was 0.2072 µM and 0.2617 µM and 0.2659 µM, the “SPE-MS determined concentration” value (1 uM compound 12, time 2.797 min) was 0.2567 µM and 0.3212 µM and 0.319 µM and the “SPE-MS determined concentration” value (2 uM compound 12, time 0.699833 min) was 0.1658 µM and 0.1554 µM and 0.162 µM. For the same compound, the “SPE-MS determined concentration” value (2 uM compound 12, time 2.098 min) was 0.3451 µM and 0.3558 µM and 0.3835 µM, the “SPE-MS determined concentration” value (2 uM compound 12, time 2.797 min) was 0.4027 µM and 0.4334 µM and 0.458 µM and the “SPE-MS determined concentration” value (4 uM compound 12, time 0.699833 min) was 0.2736 µM and 0.2242 µM and 0.2062 µM. For the same compound, the “SPE-MS determined concentration” value (4 uM compound 12, time 2.098 min) was 0.6118 µM and 0.4979 µM and 0.4845 µM, the “SPE-MS determined concentration” value (4 uM compound 12, time 2.797 min) was 0.7774 µM and 0.6268 µM and 0.6241 µM and the “SPE-MS determined concentration” value (8 uM compound 12, time 0 min) was 0.06164 µM and 0.06905 µM and 0.05066 µM. For the same compound, the “SPE-MS determined concentration” value (8 uM compound 12, time 0.699833 min) was 0.2593 µM and 0.272 µM and 0.2286 µM, the “SPE-MS determined concentration” value (8 uM compound 12, time 2.098 min) was 0.6058 µM and 0.6256 µM and 0.5278 µM and the “SPE-MS determined concentration” value (8 uM compound 12, time 2.797 min) was 0.7712 µM and 0.7937 µM and 0.6846 µM. The “SPE-MS determined concentration” value (16 uM compound 12, time 0 min) was 0.09407 µM and 0.05485 µM and 0.06025 µM, the “SPE-MS determined concentration” value (16 uM compound 12, time 0.699833 min) was 0.2985 µM and 0.2562 µM and 0.2621 µM and the “SPE-MS determined concentration” value (16 uM compound 12, time 2.098 min) was 0.6815 µM and 0.5982 µM and 0.6264 µM. For the same compound, the “SPE-MS determined concentration” value (16 uM compound 12, time 2.797 min) was 0.848 µM and 0.7909 µM and 0.7891 µM, the “SPE-MS determined concentration” value (32 uM compound 12, time 0 min) was 0.0933 µM and 0.07278 µM and 0.06334 µM and the “SPE-MS determined concentration” value (32 uM compound 12, time 0.699833 min) was 0.2746 µM and 0.2712 µM and 0.2731 µM. For the same compound, the “SPE-MS determined concentration” value (32 uM compound 12, time 2.098 min) was 0.594 µM and 0.6472 µM and 0.6437 µM, the “SPE-MS determined concentration” value (32 uM compound 12, time 2.797 min) was 0.7489 µM and 0.8116 µM and 0.8049 µM and the “slope of initial reaction rate” value (CA1-20, 0.25 μM 12) was 0.003176 and 0.003306. For the same compound, the “slope of initial reaction rate” value (CA1-20, 0.5 μM 12) was 0.006776 and 0.007676 and 0.008102, the “slope of initial reaction rate” value (CA1-20, 1 μM 12) was 0.01054 and 0.007937 and 0.01116 and the “slope of initial reaction rate” value (CA1-20, 2 μM 12) was 0.01217 and 0.0142 and 0.01263. For the same compound, the “slope of initial reaction rate” value (CA1-20, 4 μM 12) was 0.01597 and 0.01096 and 0.0129, the “slope of initial reaction rate” value (CA1-20, 8 μM 12) was 0.01648 and 0.01721 and 0.01973 and the “slope of initial reaction rate” value (HIF-1a788-822, 0.25 μM 12) was 0.000487 and 0.000839 and 0.000746. The “slope of initial reaction rate” value (HIF-1a788-822, 0.5 μM 12) was 0.000918 and 0.001031 and 0.00127, the “slope of initial reaction rate” value (HIF-1a788-822, 1 μM 12) was 0.001321 and 0.001828 and 0.001913 and the “slope of initial reaction rate” value (HIF-1a788-822, 2 μM 12) was 0.00207 and 0.002424 and 0.002687. For the same compound, the “slope of initial reaction rate” value (HIF-1a788-822, 4 μM 12) was 0.004223 and 0.003389 and 0.00353, the “slope of initial reaction rate” value (HIF-1a788-822, 8 μM 12) was 0.004209 and 0.004298 and 0.003737 and the “slope of initial reaction rate” value (HIF-1a788-822, 16 μM 12) was 0.004508 and 0.004326 and 0.004345. The “slope of initial reaction rate” value (HIF-1a788-822, 32 μM 12) was 0.003886 and 0.004421 and 0.004419.
